System: standard bacteria strains
Test: Antibacterial screening against standard strains (overall statements)
Format: cell-based
Settings: concentrations 16 to 512 µg/mL
Experimental: All of the obtained derivatives (1–9) were tested in vitro against a number of bacteria, including representative standard Gram-positive and Gram-negative rods. Compounds were screened for their minimal inhibitory concentrations (MICs).
The antimicrobial studies for all of the obtained compounds were conducted using reference strains of bacteria derived from international microbe collections—the American Type Culture Collection (ATCC) and the National Collection of Type Culture (NCTC). Among the reference strains there were two Gram-negative rods (P. aeruginosa ATCC 15442 and E. coli ATCC 25922) and six Gram-positive isolates (Staphylococcus aureus: NCTC 4163, ATCC 25923, ATCC 6538, ATCC 29213, S. epidermidis ATCC 12228, ATCC 35984). These strains are widely used to determine the activity of antimicrobials and check the drug susceptibility of bacteria, and their use enables comparison of assay results obtained in independent laboratories all over the world.
The antimicrobial activity of compounds was expressed by minimum inhibitory concentration values (MICs), according to CLCI reference procedures with some modifications. MIC was tested by the two-fold serial microdilution method (in 96-well microtiter plates) on MH II liquid medium. The final inoculum of all of the studied bacteria was 10^6 CFU/mL (colony forming unit per mL). […]

## COc1cc(OC)c2c(CBr)c(C(C)=O)oc2c1 [Compound 6, 1-[3-(Bromomethyl)-4,6-Dimethoxy-1-Benzofuran-2-yl]Ethanone]
  Antimicrobial activity against the studied strains: did not show antimicrobial properties against the studied strains
